Assay results: patent publication US20260144259A1, “CRYSTAL OF 2-(5-CYCLOPROPYL-3-(ETHYLSULFONYL)PYRIDIN-2-YL)-5-((TRIFLUOROMETHYL)SULFINYL)BENZO[D]OXAZOLE” (SUMITOMO CHEMICAL COMPANY, LIMITED, priority 2022, published 2026)

Legend:
Type in all cases: in vivo
[1] = tested on: pharaoh ant (Monomorium pharaonis); assay: Test method 8: sugar-water filter paper test on pharaoh ant workers; conditions: 0.05 ppm, 0.7 ml dilution in sugar water on filter paper, after 2 days, 25° C.
Experimental: (§1) Next, an efficacy of the Type 1 crystal of Compound (1) on controlling harmful arthropods is shown by Test examples. The following tests were conducted at 25° C.
(§2) Test compound is made to a formulation according to a similar method to that described in the Formulation example 1, and thereto is added 1.8 g of sucrose, followed by adding 3% sugar water to prepare a dilution containing a prescribed concentration of the test compound.
(§3) A filter paper having a diameter of 5.5 cm is spread on the bottom of the cup, and then 0.7 ml of the dilutions are added dropwise to the filter paper, and ten (10) pharaoh ant (Monomorium pharaonis) workers are released into the cup, and the cup is covered with the lid. After 2 days, the number of the dead and distressed individuals of pharaoh ant workers are counted, and the ratio of distressed and dead insects (%) is calculated by the following equation.
(§4) Here the dead individual is one whose behavior has completely stopped, and a distressed individual is one that cannot stand up when placed on its back and also cannot walk.

[2] = tested on: cotton aphids (Aphis gossypii); assay: Test method 1: spray on cucumber seedling infested with cotton aphids; conditions: 500 ppm; sprayed 10 mL/seedling on cucumber one day after release of about 30 aphids (all stages); after 5 days; 25° C.
Experimental: Next, an efficacy of the Type 1 crystal of Compound (1) on controlling harmful arthropods is shown by Test examples. The following tests were conducted at 25° C. Test compound is made to a formulation according to a similar method to that described in the Formulation example 1, and thereto is added water containing 0.03 v/v % of Shindain (registered trademark) to prepare a dilution containing a prescribed concentration of the test compound. Cucumber (Cucumis sativus) seedling (on the developmental stage of the second true leaf) is planted in a cup, and approximately 30 cotton aphids (Aphis gossypii) (all stages of life) are released onto the seedling. After one day, the dilutions are sprayed onto the seedling at a ratio of 10 mL/seedling. After 5 days, the number of the surviving insects is examined and the controlling value is calculated by the following equation. […]

[3] = tested on: common house mosquitos (Culex pipiens pallens); assay: Test method 4: common house mosquito larvae released into dilution; conditions: 24 h, last instar larvae released into dilution, after 1 day, 25° C., read-out: mortality of insects
Experimental: as §1
Test compound is made to a formulation according to a similar method to that described in the Formulation example 1, and thereto is added water to prepare a dilution containing a prescribed concentration of the test compound.
Into the dilution, 30 common house mosquitos (Culex pipiens pallens) at the last instar larval stage are released, and after 1 day, the state of the common house mosquito larvae is examined, and the mortality of insects is calculated by the following equation.

[4] = tested on: Argentine ant (Linepithema humile); assay: Test method 7: sugar-water filter paper test on Argentine ant workers; conditions: 0.2 ppm, 0.7 ml dilution in sugar water on filter paper, after 6 days, 25° C.
Experimental: as §1, §2
as §3, with “Argentine” for “pharaoh”, “(Linepithema humile)” for “(Monomorium pharaonis)”, “6” for “2”
as §4

[5] = tested on: diamondback moths (Plutella xylostella); assay: Test method 3: sprayed cabbage leaves fed to diamondback moths; conditions: 120 h, cabbage sprayed 20 mL/seedling, second instar larvae, after 5 days, 25° C., read-out: mortality of insects
Experimental: as §1
(§5) Test compound is made to a formulation according to a similar method to that described in the Formulation example 1, and thereto is added water containing 0.03 v/v % of Shindain (registered trademark) to prepare a dilution containing a prescribed concentration of the test compound.
(§6) Cabbage (Brassicae oleracea) seedling (on the developmental stage of the second to third true leaf) is planted in a cup, and the dilutions are sprayed onto the seedling at a ratio of 20 mL/seedling. Thereafter, the stem and leaf thereof are cut out and then are placed into a cup that is lined with a filter paper. Five (5) diamondback moths (Plutella xylostella) at the second instar larval stage are released into the cup. After 5 days, the number of the surviving insects is counted, and the mortality of insects is calculated by the following equation.

[6] = tested on: cotton aphids (Aphis gossypii); assay: Test method 6: sprayed cucumber seedling, artificial rainfall, then cotton aphids released; conditions: 0.5 ppm; cucumber sprayed 10 mL/seedling, dried, artificial rain 10 mm/hr for 1 hour; female adults released after one day; after 5 days; 25° C.
Experimental: Next, an efficacy of the Type 1 crystal of Compound (1) on controlling harmful arthropods is shown by Test examples. The following tests were conducted at 25° C. Test compound is made to a formulation according to a similar method to that described in the Formulation example 1, and thereto is added water containing 0.02 v/v % of Shindain (registered trademark) to prepare a dilution containing a prescribed concentration of the test compound. Only the second true leaves of Cucumber (Cucumis sativus) seedling (on the developmental stage of the third true leaf) are retained, and the other leaves are cut off, and the dilutions are sprayed onto the seedling at a ratio of 10 mL/seedling. After the dilution, which is treated, is dried, rain is given to the cucumber seedling with an artificial rainfall device at 10 mm/hr for 1 hour. After one day, 10 cotton aphids (Aphis gossypii) female adults are released onto the seedling. After 5 days, the number of the surviving insects is examined and the controlling value is calculated by the following equation. […]

[7] = tested on: common house mosquito (Culex pipiens pallens); assay: Test method 10: sugar-water filter paper test on common house mosquito female adults; conditions: 0.8 ppm, 0.7 ml dilution in sugar water on filter paper, after 2 days, 25° C.
Experimental: as §1, §2
as §3, with “five (5) common house mosquito (Culex pipiens pallens) female adults” for “and ten (10) pharaoh ant (Monomorium pharaonis) workers”, “[…] female adults” for “pharaoh ant workers”
Here the dead individual is one whose behavior has completely stopped, and a distressed individual is one that cannot fly and also cannot walk.

[8] = tested on: brown planthoppers (Nilaparvata lugens); assay: Test method 5: sprayed rice seedling with brown planthoppers; conditions: 144 h, rice sprayed 10 mL/seedling, third instar larvae, after 6 days, 25° C., read-out: mortality of insects
Experimental: as §1, §5
Rice (Oryza sativa) seedling (on the developmental stage of the second leaf) is planted in a cup, and the dilutions are sprayed onto the seedling at a ratio of 10 mL/seedling. Thereafter, twenty (20) brown planthoppers (Nilaparvata lugens) at the third instar larval stage are released into the cup. After 6 days, the number of the surviving insects is counted, and the mortality of insects is calculated by the following equation.

[9] = tested on: German cockroach (Blattella germanica); assay: Test method 9: sugar-water filter paper test on German cockroach male adults; conditions: 0.2 ppm, 0.7 ml dilution in sugar water on filter paper, after 5 days, 25° C.
Experimental: as §1, §2
as §3, with “five (5) German cockroach (Blattella germanica) male adults” for “and ten (10) pharaoh ant (Monomorium pharaonis) workers”, “5” for “2”, “German cockroach male adults” for “pharaoh ant workers”
as §4

[10] = tested on: common cutworms (Spodoptera litura); assay: Test method 2: sprayed cabbage leaves fed to common cutworms; conditions: 120 h, cabbage sprayed 20 mL/seedling, second instar larvae, after 5 days, 25° C., read-out: mortality of insects
Experimental: as §1, §5
as §6, with “common cutworms (Spodoptera litura)” for “diamondback moths (Plutella xylostella)”

Row | Compound | ratio of distressed and dead insects [1] | controlling value [2] | mortality at 3.5 ppm [3] | ratio of distressed and dead insects [4] | mortality at 500 ppm [5] | controlling value [6] | ratio of distressed and dead insects [7] | mortality at 500 ppm [8] | ratio of distressed and dead insects [9] | mortality at 500 ppm [10]
1 | CCS(=O)(=O)c1cc(C2CC2)cnc1-c1nc2cc([S+]([O-])C(F)(F)F)ccc2o1 (stereo not drawn) [Type 1 crystal of Compound (1), 2-(5-cyclopropyl-3-(ethylsulfonyl)pyridin-2-yl)-5-((trifluoromethyl)sulfinyl)benzo[d]oxazole] | 100% | ≥ 90% | ≥ 90% | 95% | ≥ 80% | 55.7% | 100% | ≥ 90% | 100% | ≥ 80%
2 | CCS(=O)(=O)c1cc(C2CC2)cnc1-c1nc2cc([S+]([O-])C(F)(F)F)ccc2o1 (stereo not drawn) [amorphous of Compound (1), 2-(5-cyclopropyl-3-(ethylsulfonyl)pyridin-2-yl)-5-((trifluoromethyl)sulfinyl)benzo[d]oxazole] | 15% |  |  | 30% |  | 32.4% | 20% |  | 0% | 
